The test system of series [1] is brain of rat after focal cerebral ischemia. An excerpt:
Thallium is a potassium tracer and can detect changes in potassium metabolism, as occur, e.g., in brain infarcts, brain tumors, or degenerative diseases.
Shown are frontal sections in the plane of the anterior commissure (A, D) and images of the same sections (B, E).
The thallium is taken up essentially by the sodium-potassium pump and transport systems regulated by it and is thus energy-dependent. […] Scale bar in A: 500 μm, in B: 50 μm, in C: 25 μm, in D: 10 μm, in E: 25 μm and in F: 100 μm.

In the next series the test system is brain. As to conditions: cited from earlier work.
The subject of the next series is experimental animals. As to conditions: high thallium acetate doses needed for the method; animals sacrificed 15 minutes after administration; cited from earlier work.

Consider `CCN(CC)C(=S)[S][201Tl]` [Tl-DDC, thallium-201 diethyldithiocarbamate], for which the “staining intensity (thallium) in infarct core” value in series [1] (15 minutes after focal cerebral ischemia (hyperacute stage), infarct core) is “clearly reduced staining intensity”. Further, in series [1] (15 minutes after focal cerebral ischemia, zone surrounding core vs contralateral side), the “staining intensity (thallium) in zone surrounding infarct core” value is “clearly lower than in the undamaged contralateral side”. The “differences in thallium distribution ipsilateral and contralateral to the occluded vessel” value in series [1] (7 days after focal cerebral ischemia (late time point)) is reported as “less pronounced”. Also, the “thallium staining of astrocytes in the infarct core” value in series [1] (hyperacute stage of cerebral ischemia, astrocytes) is “intensively stained”. In series [1] (hyperacute stage of cerebral ischemia, neurons), the “thallium detection in neurons of the infarct core” value is recorded as “cannot be detected”. Besides, in the series with brain, the cerebral uptake result is “good cerebral uptake” and the “decomposition in the brain” value is recorded as “decomposes spontaneously in the brain”.

Regarding `CC(=O)[O-].[Tl+]` [thallium acetate], in the series on experimental animals, the “toxicity of the thallium dose used” value was “deadly”.

With “technetium-99m-diethyldithiocarbamate [^99 mTc-DDC]”, in the series with brain, the cerebral uptake entry is given as “good cerebral uptake”, the “decomposition in the brain” value was “essentially lower rate of decomposition in the brain” and the “retention in the brain” value was “retained there to a lesser extent”.
